According to the supplement of paper PMC6045584:
± gives the standard deviation of the averaged measurements.

Tests used:
[1] = compound: CCN(CC)CCCCNc1ncc2cc(-c3cc(OC)cc(OC)c3)c(NC(=O)NC(C)(C)C)nc2n1; assay: surviving fraction relative to DMSO-only wells; higher = less growth inhibition; conditions: exposure time: 5 days
How it was run: (§1)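 Luminescence normalised to the median of DMSO-only wells defines surviving fraction, with viability read by CellTiter-Glo. Signal was recorded after 10 minutes at room temperature, once log-phase tumour cell lines seeded at 250–500 cells per well in 384-well plates had spent 24 hours settling and then five days under continuous exposure to inhibitors at 0.5, 1, 5, 10, 50, 100, 500 and 1000 nM.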

NUTLIN3 = compound: COc1ccc(C2=N[C@@H](c3ccc(Cl)cc3)[C@@H](c3ccc(Cl)cc3)N2C(=O)N2CCNC(=O)C2)c(OC(C)C)c1 [NUTLIN3]; assay: as above; conditions: exposure time: 5 days
How it was run: as §1

Row | Test System | surviving fraction ([1]; 0.5 nM) | surviving fraction ([1]; 1 nM) | surviving fraction ([1]; 5 nM) | surviving fraction ([1]; 10 nM) | surviving fraction ([1]; 50 nM) | surviving fraction ([1]; 100 nM) | surviving fraction ([1]; 500 nM) | surviving fraction ([1]; 1000 nM) | surviving fraction (NUTLIN3; 0.5 nM) | surviving fraction (NUTLIN3; 1 nM) | surviving fraction (NUTLIN3; 5 nM) | surviving fraction (NUTLIN3; 10 nM) | surviving fraction (NUTLIN3; 50 nM) | surviving fraction (NUTLIN3; 100 nM) | surviving fraction (NUTLIN3; 500 nM) | surviving fraction (NUTLIN3; 1000 nM)
1 | HOS BONE | 0.99 ± 0.019 | 1.01 ± 0.013 | 0.9947 ± 0.0083 | 1.03 ± 0.022 | 0.9823 ± 0.005 | 1.01 ± 0.015 | 0.9423 ± 0.0071 | 0.927 ± 0.025 | 1.011 ± 0.0078 | 1.03 ± 0.014 | 1.008 ± 0.01 | 0.994 ± 0.02 | 1.06 ± 0.02 | 1.05 ± 0.01 | 1.057 ± 0.0091 | 1.09 ± 0.021
2 | HOSMNG BONE | 1.02 ± 0.09 | 1 ± 0.072 | 0.994 ± 0.04 | 1.01 ± 0.062 | 0.996 ± 0.062 | 1.02 ± 0.11 | 1.02 ± 0.041 | 1.02 ± 0.065 | 1.04 ± 0.056 | 1.03 ± 0.033 | 0.979 ± 0.098 | 0.975 ± 0.076 | 1.09 ± 0.025 | 1.12 ± 0.013 | 1.12 ± 0.026 | 1.13 ± 0.023
3 | HSSYII SYNOVIAL | 0.799 ± 0.027 | 0.9 ± 0.044 | 0.886 ± 0.029 | 0.784 ± 0.05 | 0.475 ± 0.013 | 0.402 ± 0.007 | 0.274 ± 0.005 | 0.26 ± 0.0082 | 0.951 ± 0.02 | 0.904 ± 0.051 | 0.976 ± 0.041 | 0.9313 ± 0.0089 | 0.942 ± 0.053 | 0.91 ± 0.035 | 0.676 ± 0.058 | 0.43 ± 0.04
4 | HT1080 SOFT TISSUE | 1.036 ± 0.009 | 1.03 ± 0.024 | 1.02 ± 0.046 | 1 ± 0.025 | 1.03 ± 0.021 | 1.01 ± 0.021 | 1.03 ± 0.059 | 1.07 ± 0.029 | 1.02 ± 0.019 | 0.978 ± 0.031 | 0.998 ± 0.012 | 1.02 ± 0.018 | 0.9757 ± 0.0085 | 0.929 ± 0.01 | 0.797 ± 0.024 | 0.58 ± 0.046
5 | HU09 BONE | 1 ± 0.045 | 1.01 ± 0.047 | 0.928 ± 0.028 | 1.02 ± 0.12 | 0.942 ± 0.061 | 0.921 ± 0.072 | 0.72 ± 0.011 | 0.715 ± 0.065 | 1.03 ± 0.17 | 0.933 ± 0.1 | 1.02 ± 0.14 | 1.03 ± 0.059 | 1.04 ± 0.069 | 1.08 ± 0.11 | 1.04 ± 0.14 | 1.03 ± 0.085
